We go through 2 compounds from PMC11481179, “Development and Application of Reversible and Irreversible Covalent Probes for Human and Mouse Cathepsin‐K Activity Detection, Revealing Nuclear Activity” (Advanced Science, 2024).

The IC50 is the concentration that inhibits the measured activity by half. The low end stands for higher potency, the high end for lower potency.

Data set [1] concerns the target T1, endogenous CTSK in intact U-2 OS cells (Homo sapiens, UniProt P43235).
T1 construct: ability to label endogenous CTSK activity in intact cells; endogenous in cells; host or cells: U-2 OS
T1 sequence (P43235 115-329): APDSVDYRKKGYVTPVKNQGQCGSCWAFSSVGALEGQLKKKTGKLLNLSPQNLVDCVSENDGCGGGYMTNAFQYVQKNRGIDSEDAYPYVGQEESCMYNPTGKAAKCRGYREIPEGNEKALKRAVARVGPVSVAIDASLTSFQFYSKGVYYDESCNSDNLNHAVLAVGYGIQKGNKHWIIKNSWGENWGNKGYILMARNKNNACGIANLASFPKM
Description: Labeling of endogenous CTSK in intact cells, fluorescent SDS-PAGE. Particulars: inhibitor 5 µM, 2 h, then GD32 5 µM. The class given is cell-based. How it is done: To test probe selectivity and the ability to label endogenous CTSK activity in intact cells, three cell lines were selected: human osteosarcoma MG‐63 and U‐2 OS, and human glioblastoma U‐87 MG; all cell lines express CTSK along with other lysosomal cathepsins.^[ [44] ^] First, the ABPs were incubated with intact U‐2 OS cells for different durations of time, and the probe selectivity toward CTSK was examined, with a pan cathepsin ABP, GB123, used as a control that labels CTS B, K, L, and S in cells. After cell lysis, the probe‐labeled enzymes were resolved and detected by a fluorescent scan of the SDS‐PAGE. […] Specifically, intact MG‐63 cells required a 5 h incubation (Figure 2b,c), while U‐87 MG cells required a 2 h incubation (Figure 2d).
Figure 2 Labeling of endogenous CTSK in intact cells. a) U2‐OS cells were treated with DMSO or 5 µM of the indicated inhibitors in culture medium, for 2 h, then with indicated ABPs [5 µM] in a culture medium for indicated times, followed by cell lysis, SDS‐PAGE separation, and fluorescent scanning of the gel at 635/670 nm. An immunoblot of CTSK of the same gel is presented below. b) Intact MG63 cells were treated with GD32 5 µM in the culture media for indicated times, cell lysates were analyzed as in a. CTSK immunoblot is presented, pro and mature CTSK are indicated by arrows. c) MG63 cells and d) U87MG cells were treated with DMSO, or 5 µM of indicated inhibitors in culture medium for 2 h, followed by incubation with 5 µM of indicated probes for 5 h (GD32 and GD42) and 2 h (GB123), cell lysates were analyzed by fluorescent SDS PAGE as in a. […] In (c) a CTSK immunoblot of a representative MG63 lane on the right. e) Labeling of active mature CTSK by GD32 in A549 and U2‐0S cells in externally adjusted different pH. Cells were incubated with 5 µM GD32 for 24 h in growth media at indicated pHs, prior to the cell lysis, cell lysates were analysed as in a. CTSK immunoblot below. f) A549 cells were incubated with increasing concentrations of GD30 for 2 h at pH = 5, followed by the incubation with 5 µM GD32 for 24 h prior to the cell lysis, cell lysates were analyzed as in a. g) Intact U‐87 MG cells or U‐87 MG cell lysates were treated with 5 µM GD32 for 2 h, the intact cells were then lysed and all lysates were analyzed as in (a). h) Intact or lysates of U‐87MG were treated with GD32 for 2 h then immunoprecipitation was done with an anti‐CTSK antibody. Input (I), immunoprecipitation (IP), and output (O) were separated by a 14% SDS‐PAGE and scanned for fluorescence. The gel was then blotted and reacted with an anti‐cystatin B antibody below. ODN (Odanacatib), GB111 (GB111‐NH2), mCTSK (mature CTSK). […]
deoxycholate). After adding sample buffer, samples were boiled for 10 minutes, and analyzed […]
lysates were analyzed as described above. […]

A further data set deals with U-87 MG cells. Description: Cell viability assay (methylene blue). In kind it is cell-based, human. Particulars: 48 h incubation. The method, then: U-2 OS, U-87 MG, and enriched monocyte cells were grown at 370 C with 5% of CO2 in the
respective medium as described previously. Cells were seeded (1500 cells/well in 96 wells
plate) one day before the incubation with indicated probe or inhibitor at various concentrations.
After 48 h cells were fixed, and viability was measured by quantitative colorimetric assay using
methylene blue according to the procedure reported by Ben-Bassat et al. The data were
expressed as a percentage of control; data represent the mean of 2 experiments with triplicates
for each treatment (± standard deviation).
Fluorescent imaging of CTSK activity in lung tissue: Freshly resected human lung cancer and
normal lung tissues or mouse normal lung and primary lung cancer were embedded in OCT,
frozen in liquid nitrogen, and kept at - 80° C. Tissues were sectioned into 10 μm thick slices
using a cryostat (Leica). The slides were defrosted and washed with 1X PBS. Then the slides
were pretreated with DMSO or GD30 (5 µM) in buffer acetate for 1 h at 37° C. Afterward,
GD32 (0.75uM) or DMSO in buffer acetate were applied to the slides for 4 h at 37° C. Three
short washes with 1X PBS were done and the slides were left in 1X PBS for overnight
incubation at 4° C. The next day, slides were mounted with DAPI-Fluoromount-G® before
visualization by confocal microscopy. Olympus FV10i was used for human samples, whereas
Zeiss was used for mouse samples.
Details of the synthesis of the compounds
Synthesis of Compound (2)

The target of another data set is T2, CTSK (Homo sapiens, UniProt P43235).
T2 sequence (P43235 115-329): T1 sequence (P43235 115-329)
The data set is described as follows: In vitro kinetic evaluation of cathepsin inhibition, fluorescent substrate Z-FR-AMC. In kind it is biochemical. The text has this:
(§1) used for TLC. Phosphate Buffer Saline (PBS) was purchased from Biological Industries (pH = […]
(§2) 7.4) and was used as a buffer system in all experiments if not indicated otherwise. […]
(§3) Recombinant human CTSB, CTSK, CTSL, and CTSS were supplied by B. Turk (J.
(§4) Stefan Institute).[1] […]
Fluorescent gels were scanned by a Typhoon FLA 9500 flatbed laser scanner (GE Healthcare […]
Bio-Sciences AB, Uppsala, Sweden). BioRad ChemiDox XRS+ was used for western blot […]
analysis. Olympus FV10i inverted microscope (Tokyo,Japan) with Fluoview software or Zeiss […]
Confocal LSM 980 with Airyscan (Germany) with Zen software were used for confocal […]
(§5) In vitro kinetic evaluation of labeling recombinant cathepsins:
(§6) Reactions were monitored for 30 min at 37° C in 96-well black flat-bottom microplates […]
(Greiner, Germany) using Tecan […] M1000 pro plate reader (Tecan, Switzerland), […]
(§7) substrates Z-RR-AMC (CTSL) or Z-FR-AMC (CTSS, CTSB and CTSK), and excitation and […]
emission wavelengths of 370 and 460 nm, respectively. Cathepsin concentrations in the assay were 0.4 nM (CTSK) or 5 nM (CTSS, CTSB, and CTSL). The buffer was 100 mM Na2HPO4/NaH2PO4, 50 mM NaCl, 5 mM DTT, 0,1% Peg-6000, pH 6. For irreversible inhibitors, reaction data were fitted to the one-phase association formula in GraphPad Prism 9 software: Y=Y0 + (Plateau-Y0)*(1-exp(-K*X)) where in this case Y0 and Y represent fluorescence signal at times 0 and t, respectively, K represent the observed reaction rate kobs and X the inhibitor concentration. Inactivation rates at each inhibitor concentration were […]
maximal rate of inactivation (kinact) was obtained as the asymptote from equation […]
for each X, and Kiapp is the apparent inhibition constant. Ki values were calculated from IC50 or from Kiapp using formulas Ki = Kiapp / (1 + Km/S) and IC50 = E0/2 + Kiapp, where Km stands for Michalis-Menten constant, S for substrate concentration and E0 for cathepsin concentration.
(§8) The highest inhibitor concentrations in the assay were 50 µM. Measurements were performed in several independent duplicates. Average values are presented with standard deviations. […]

The next data set addresses CTSS (Homo sapiens, UniProt P25774). The data set is described as above. The class given is biochemical. The method, then: as §1, §2, §3, §4, §5, §6
(Greiner, Germany) using Tecan INFINITE M1000 pro plate reader (Tecan, Switzerland), […]
as §7
emission wavelengths of 370 and 460 nm, respectively. Cathepsin concentrations in the assay were 0.4 nM (CTSK) or 5 nM (CTSS, CTSB, and CTSL). The buffer was 100 mM Na2HPO4/NaH2PO4, 50 mM NaCl, 5 mM DTT, 0,1% Peg-6000, pH 6. For irreversible inhibitors, reaction data were fitted to the one-phase association formula in GraphPad Prism 9 software: Y=Y0 + (Plateau-Y0)*(1-exp(-K*X)) where in this case Y0 and Y represent fluorescence signal at times 0 and t, respectively, K represent the observed reaction rate kobs and X the inhibitor concentration. Inactivation rates at each inhibitor concentration were obtained by subtracting the inactivation observed in the control sample: kobs – kctrl. The maximal rate of inactivation (kinact) was obtained as the asymptote from equation Y = kinact*X/(Kiapp + X) where X is inhibitor concentration, Y is the observed inactivation rate for each X, and Kiapp is the apparent inhibition constant. Ki values were calculated from IC50 or from Kiapp using formulas Ki = Kiapp / (1 + Km/S) and IC50 = E0/2 + Kiapp, where Km stands for Michalis-Menten constant, S for substrate concentration and E0 for cathepsin concentration.
as §8

Chain of CTSS (P25774 115-331): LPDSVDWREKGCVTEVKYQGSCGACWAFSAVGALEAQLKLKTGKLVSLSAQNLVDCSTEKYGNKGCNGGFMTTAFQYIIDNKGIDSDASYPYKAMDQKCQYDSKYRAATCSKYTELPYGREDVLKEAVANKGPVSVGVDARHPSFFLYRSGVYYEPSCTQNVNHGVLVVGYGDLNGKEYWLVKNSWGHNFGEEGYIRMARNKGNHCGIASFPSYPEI

For `Cc1cccc(C)c1C(=O)OCC(=O)[C@H](CCCCN)NC(=O)[C@H](Cc1ccccc1)NC(=O)OCc1ccccc1` [GB111‐NH2, reference compound], the “effect of inhibitor preincubation on GD32-labeled CTSK band” value in data set [1] is “depletion of the CTSK‐specific band”. Further, in the data set on U-87 MG cells, the cytotoxicity entry is “exhibited cytotoxicity”.

For `CC(C)(F)C[C@H](N[C@@H](c1ccc(-c2ccc(S(C)(=O)=O)cc2)cc1)C(F)(F)F)C(=O)NC1(C#N)CC1` [ODN, odanacatib, reference compound], the figures for the mode of inhibition entry on CTSK (CTSK) and at CTSS (CTSS) were “Reversible [Tight binding]” and “Reversible”, respectively. Besides, the IC50 amounted to 0.94 nM on CTSK (CTSK 0.4 nM, tight binding) and 140 nM on CTSS (CTSS 5 nM). The “effect of inhibitor preincubation on GD32-labeled CTSK band” value in data set [1] was “depletion of the CTSK‐specific band”.
